Patent US6207669A, “Bicyclic heteroaromatic compounds as protein tyrosine kinase inhibitors” (Glaxo Wellcome Inc., priority 1996, dated 2001)
Counter-ions that a name gives are not always drawn. Like-named read-outs stand apart in the source and are kept apart here.

Assays:
[1] = target: T1, EGFr isolated from solubilised A431 cell membranes (Homo sapiens, UniProt P00533); test: Substrate phosphorylation assay, EGFr; assay type: biochemical; conditions: 30 minutes, room temperature, ATP and peptide at Km
T1 construct: EGFr isolated from solubilised A431 cell membranes; endogenous in cells; host or cells: A431 cells (solubilised membranes)
Experimental: (§1) The substrate phosphorylation assays use baculovirus expressed, recombinant constructs of the intracellular domains of c-erbB-2 and c-erbB4 that are constitutively active and EGFr isolated from solubilised A431 cell membranes. The method measures the ability of the isolated enzymes to catalyse the transfer of the γ-phosphate from ATP onto tyrosine residues in a biotinylated synthetic peptide (Biotin-GluGluGluGluTyrPheGluLeuVal). The enzyme is incubated for 30 minutes, at room temperature, with 10 mM […], ATP and peptide at Km concentrations, and test compound (diluted from a 5 mM stock in DMSO, final DMSO concentration is 2%) in 40 mM HEPES buffer, pH 7.4. The reaction is stopped by the addition of EDTA (final concentration 0.15 mM) and a sample is transferred to a streptavidin-coated 96-well plate. The plate is washed and the level of phosphotyrosine on the peptide is determined using a Europium-labelled antiphosphotyrosine antibody and quantified with a time-resolved fluorescence technique. The results are shown in Table 1 as the IC50 values in nM.

[2] = target: T2, c-erbB-2 (baculovirus expressed, recombinant intracellular domain) (Homo sapiens, UniProt P04626); test: Substrate phosphorylation assay, c-erbB-2; assay type: biochemical; conditions: 30 minutes, room temperature, ATP and peptide at Km
T2 construct: recombinant constructs of the intracellular domains of c-erbB-2 and c-erbB4 that are constitutively active; made in house
Experimental: The substrate phosphorylation assays use baculovirus expressed, recombinant constructs of the intracellular domains of c-erbB-2 and c-erbB4 that are constitutively active and EGFr isolated from solubilised A431 cell membranes. […] The reaction is stopped by the addition of EDTA (final concentration 0.15 mM) and a sample is transferred to a streptavidin-coated 96-well plate. The plate is washed and the level of phosphotyrosine on the peptide is determined using a Europium-labelled antiphosphotyrosine antibody and quantified with a time-resolved fluorescence technique. The results are shown in Table 1 as the IC50 values in nM.

[3] = target: T3, c-erbB4 (baculovirus expressed, recombinant intracellular domain) (Homo sapiens, UniProt Q15303); test: Substrate phosphorylation assay, c-erbB4; assay type: biochemical; conditions: 30 minutes, room temperature, ATP and peptide at Km; read-out: Substrate Phosphorylation erbB-4 IC50
T3 construct: recombinant constructs of the intracellular domains of c-erbB-2 and c-erbB4 that are constitutively active; made in house
Experimental: as §1

[4] = tested on: HB4a cell line transformed by over-expression of c-erbB-2; test: Cell proliferation assay, HB4a erbB-2; assay type: cell-based; conditions: Homo sapiens, 96 h, 4 days, methylene blue staining
Experimental: (§2) The cell proliferation assay uses an immortalised human breast epithelial cell line (HB4a) which has been transformed by over-expression of c-erbB-2. Growth of these cells in low serum is dependent upon the c-erbB-2 tyrosine kinase activity. […] Cells are plated at 3000/well in 96-well plates in […] medium and allowed to attach overnight. test compound is added in 0.1 ml medium, with a final concentration of 0.5% DMSO, and the plates incubated for 4 days at 37° C. The cells are then examined microscopically for evidence of morphological detransformation and cell mass is estimated by staining with methylene blue and measuring the absorbance at 620 nm. […] Activity against a range of naturally occurring EGFr or c-erbB-2 over-expressing human tumour cell lines (BT474-breast, HN5-head and neck, N87 gastric and Calu3-lung) is assessed with selected compounds by the same methodology.

[5] = tested on: HB4a cell line transfected with ras; test: Cell proliferation assay, HB4a ras; assay type: cell-based; conditions: Homo sapiens, 96 h, 4 days, methylene blue staining, general toxicity comparison
[6] = tested on: BT474-breast tumour cell line; test: Cell proliferation assay, BT474; assay type: cell-based; conditions: Homo sapiens, BT-474, 96 h; 4 days, methylene blue staining
Experimental: as §2

[7] = tested on: N87 gastric tumour cell line; test: Cell proliferation assay, N87; assay type: cell-based; conditions: Homo sapiens, 96 h; 4 days, methylene blue staining
Experimental: as §2

[8] = tested on: Calu3-lung tumour cell line; test: Cell proliferation assay, Calu3; assay type: cell-based; conditions: Homo sapiens, Calu-3, 96 h; 4 days, methylene blue staining
Experimental: as §2

[9] = tested on: HN5-head and neck tumour cell line; test: Cell proliferation assay, HN5; assay type: cell-based; conditions: Homo sapiens, 96 h, read-out: Cell Proliferation HN5 IC50
Experimental: as §2

[10] = 4 days, methylene blue staining

T1 sequence (P00533 25-1210): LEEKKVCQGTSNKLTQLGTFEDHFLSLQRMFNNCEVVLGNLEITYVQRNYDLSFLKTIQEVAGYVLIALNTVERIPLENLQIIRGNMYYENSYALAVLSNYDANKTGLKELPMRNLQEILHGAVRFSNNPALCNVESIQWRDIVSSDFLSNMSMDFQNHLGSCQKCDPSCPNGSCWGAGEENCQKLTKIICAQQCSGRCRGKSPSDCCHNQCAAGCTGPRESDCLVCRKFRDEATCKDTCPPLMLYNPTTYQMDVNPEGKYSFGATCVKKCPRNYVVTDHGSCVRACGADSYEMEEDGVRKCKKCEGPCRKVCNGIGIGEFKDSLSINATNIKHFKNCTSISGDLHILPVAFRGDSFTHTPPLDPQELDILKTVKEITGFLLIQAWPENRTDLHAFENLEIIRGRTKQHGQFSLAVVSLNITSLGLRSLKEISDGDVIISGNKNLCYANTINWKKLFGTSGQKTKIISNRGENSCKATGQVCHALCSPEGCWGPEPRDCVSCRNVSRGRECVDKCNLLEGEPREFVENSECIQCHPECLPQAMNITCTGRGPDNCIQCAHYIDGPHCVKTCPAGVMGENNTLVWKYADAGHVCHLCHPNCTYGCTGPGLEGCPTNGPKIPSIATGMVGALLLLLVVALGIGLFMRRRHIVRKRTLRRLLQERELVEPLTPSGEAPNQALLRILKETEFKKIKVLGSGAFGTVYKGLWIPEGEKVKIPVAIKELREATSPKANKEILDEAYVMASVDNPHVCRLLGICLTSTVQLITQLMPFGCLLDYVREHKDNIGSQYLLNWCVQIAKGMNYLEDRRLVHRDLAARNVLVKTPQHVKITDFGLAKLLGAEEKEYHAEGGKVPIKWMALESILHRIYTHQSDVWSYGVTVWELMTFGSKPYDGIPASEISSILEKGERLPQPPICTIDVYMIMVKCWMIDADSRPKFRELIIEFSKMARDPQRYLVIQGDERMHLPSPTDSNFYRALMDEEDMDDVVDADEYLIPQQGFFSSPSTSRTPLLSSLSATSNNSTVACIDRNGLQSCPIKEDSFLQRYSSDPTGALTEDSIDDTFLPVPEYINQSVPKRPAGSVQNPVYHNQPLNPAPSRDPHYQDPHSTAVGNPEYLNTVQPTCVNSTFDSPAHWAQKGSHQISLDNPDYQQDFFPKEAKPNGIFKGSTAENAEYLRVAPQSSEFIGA
T3 sequence (Q15303 676-1308 limits assumed): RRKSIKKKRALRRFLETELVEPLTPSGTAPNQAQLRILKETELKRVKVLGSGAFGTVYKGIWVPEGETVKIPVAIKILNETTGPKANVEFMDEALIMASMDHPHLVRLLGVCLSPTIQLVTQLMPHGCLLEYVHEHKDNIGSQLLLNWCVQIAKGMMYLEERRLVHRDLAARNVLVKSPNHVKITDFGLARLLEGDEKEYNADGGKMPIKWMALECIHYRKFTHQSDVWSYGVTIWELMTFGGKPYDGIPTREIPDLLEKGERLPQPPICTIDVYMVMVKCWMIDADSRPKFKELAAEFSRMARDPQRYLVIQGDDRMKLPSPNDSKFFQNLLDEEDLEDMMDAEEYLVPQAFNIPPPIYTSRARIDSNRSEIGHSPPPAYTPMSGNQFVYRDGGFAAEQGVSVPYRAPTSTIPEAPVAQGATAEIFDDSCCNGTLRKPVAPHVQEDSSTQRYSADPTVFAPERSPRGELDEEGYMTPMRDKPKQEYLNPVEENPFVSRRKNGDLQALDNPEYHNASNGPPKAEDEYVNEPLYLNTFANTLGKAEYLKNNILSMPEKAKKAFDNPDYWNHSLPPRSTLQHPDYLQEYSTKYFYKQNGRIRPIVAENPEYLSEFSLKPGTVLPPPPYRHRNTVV
T2 sequence (P04626 676-1255 limits assumed): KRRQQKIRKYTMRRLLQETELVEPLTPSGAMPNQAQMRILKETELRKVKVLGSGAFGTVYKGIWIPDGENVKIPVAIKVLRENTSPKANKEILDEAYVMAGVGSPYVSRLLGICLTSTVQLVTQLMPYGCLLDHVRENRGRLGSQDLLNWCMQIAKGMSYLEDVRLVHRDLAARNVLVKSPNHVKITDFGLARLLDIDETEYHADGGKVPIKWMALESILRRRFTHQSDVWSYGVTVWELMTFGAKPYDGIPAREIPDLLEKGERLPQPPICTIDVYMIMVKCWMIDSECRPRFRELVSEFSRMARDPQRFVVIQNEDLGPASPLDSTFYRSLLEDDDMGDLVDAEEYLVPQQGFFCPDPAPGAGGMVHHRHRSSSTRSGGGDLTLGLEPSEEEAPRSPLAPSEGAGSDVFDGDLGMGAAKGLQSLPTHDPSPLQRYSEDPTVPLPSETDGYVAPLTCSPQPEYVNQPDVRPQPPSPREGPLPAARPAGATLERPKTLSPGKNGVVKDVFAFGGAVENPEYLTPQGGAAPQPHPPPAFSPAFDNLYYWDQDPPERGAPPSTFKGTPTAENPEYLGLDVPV

| SMILES | IC50 [1] [nM] | IC50 [2] [nM] | IC50 [3] [nM] | IC50 [7] [nM] | IC50 [9, 10] [nM] | IC50 [4] [nM] | IC50 [5] [nM] | IC50 [6] [nM] | IC50 [8] [nM] | IC50 [9] [nM] |
| --- | --- | --- | --- | --- | --- | --- | --- | --- | --- | --- |
| c1ccc(COc2ccc(Nc3ncnc4cnc(-c5ccc(CNc6cccnc6)o5)cc34)cc2)cc1 [Example 5, (4-Benzyloxy-phenyl)-(6-(5-(pyridin-3-ylaminomethyl)-furan-2-yl)-pyrido[3,4-d]pyrimidin-4-yl)-amine] | 260 | 110 | 1600 |  |  | 5600 | 8200 |  |  |  |
| CN(C)Cc1ccc(-c2cc3c(Nc4ccc(OCc5ccccc5)cc4)ncnc3cn2)o1 [Example 6, (4-Benzyloxy-phenyl)6-(5-(dimethyyaminomethyl)-furan-2-yl)pyrido[3,4-d]pyrimidin4-yl)-amine hydrochloride] | 380 | 98 | 2400 |  |  | 1500 | 2200 |  |  |  |
| CN(CC(N)=O)Cc1ccc(-c2cc3c(Nc4ccc(OCc5ccccc5)cc4)ncnc3cn2)o1 [Example 8, 2-((5-(4-(4-Benzyloxy-phenylamino)-pyrido[3,4-d]pyrimidin-6-yl)-furan-2-ylmethyl)-methylamino)-acetamide] | 720 | 11 | 160 | 60 |  | 100 | 41000 | 380 | 340 | 350 |
| OCc1ccc(-c2cc3c(Nc4ccc(OCc5ccccc5)cc4)ncnc3cn2)o1 [Example 12, (5-4-(4-(4-Benzyloxy-phenylamino)-pyrido[3,4-d]pyrimidin-6-yl)-furan-2-yl)-methanol hydrochloride] | 31 | 4 | 490 |  |  | 440 | 7600 |  |  | 460 |
| NC(=O)[C@H]1CCCN1Cc1ccc(-c2cc3c(Nc4ccc(OCc5ccccc5)cc4)ncnc3cn2)o1 [Example 13, (2R)-1-{5-[4-(4-Benzyloxy-phenylamino)-pyrido[3,4-d]pyrimidin-6-yl]-furan-2-ylmethyl}pyrrolidine-2-carboxalic acid amide hydrochloride] |  | 14 | 480 |  |  | 170 | > 50000 |  |  | 350 |
| CS(=O)(=O)CCCNCc1ccc(-c2cc3c(Nc4ccc(OCc5ccccc5)cc4)ncnc3cn2)o1 [Example 14] |  | 420 | 3900 |  |  |  |  |  |  |  |
| CN(C)C(=O)[C@@H]1CCCN1Cc1ccc(-c2cc3c(Nc4ccc(OCc5ccccc5)cc4)ncnc3cn2)o1 [Example 16, (2S)-1-{-5-[4-(4-Benzyloxy-phenylamino)-pyrido[3,4-d]pyrimidin-6-yl]-furan-2-ylmethyl}-pyrrolidine-2-carboxylic acid dimethylamide] |  | 280 | 2800 | 670 | 3300 | 2100 | 7900 |  |  |  |

Continued, in another order:

| IC50 [1] [nM] | IC50 [2] [nM] | IC50 [3] [nM] | IC50 [7] [nM] | IC50 [9, 10] [nM] | SMILES | IC50 [4] [nM] | IC50 [5] [nM] | IC50 [6] [nM] | IC50 [8] [nM] | IC50 [9] [nM] |
| --- | --- | --- | --- | --- | --- | --- | --- | --- | --- | --- |
| 170 | 70 | 1400 |  |  | c1ccc(COc2ccc(Nc3ncnc4cnc(-c5ccc(CN6CCCCC6)o5)cc34)cc2)cc1 [Example 1, (4-Benzyloxy-phenyl)-(6-(5-piperidin-1-ylmethyl)-furan-2-yl)-pyrido3,4-d]pyrimidin-4-yl)-amine hydrochloride] |  |  |  |  |  |
| 170 | 60 | 760 |  |  | CN1CCN(Cc2ccc(-c3cc4c(Nc5ccc(OCc6ccccc6)cc5)ncnc4cn3)o2)CC1 [Example 2, (4-Benzyloxy-phenyl)-(6-(5-(4-methyl-piperazin-1-ylmethy)-furan-2-yl)pyrido[3,4-d]pyrimidin-4-yl)-amine] | 430 | 2100 |  |  |  |
| 140 | 10 | 190 |  |  | CS(=O)(=O)CCNCc1ccc(-c2cc3c(Nc4ccc(OCc5ccccc5)cc4)ncnc3cn2)o1 [Example 3, 4-Benzyloxy-phenyl)-(6-(5-((2-methanesulphonyl-ethylamino)methyl)-furan-2-yl-pyrido[3,4-d]pyrimidin-4-yl)-amine hydrochloride] | 500 | 31000 |  |  |  |
| 130 | 13 | 530 |  |  | COC(=O)CNCc1ccc(-c2cc3c(Nc4ccc(OCc5ccccc5)cc4)ncnc3cn2)o1 [Example 4, ((5-4-(4-Benzloxy-phenylamino)-pyrido[3,4-d]pyrimidin-6-yl)-furan-2-ylmethyl)-amino)-acetic acid methyl ester hydrochloride] | 29000 | 16000 |  |  |  |
| 79 | 44 | 84 |  |  | NC(=O)[C@@H]1CCCN1Cc1ccc(-c2cc3c(Nc4ccc(OCc5ccccc5)cc4)ncnc3cn2)o1 [Example 7, (2S)-1-(5-(4-(4-Benzyloxy-phenylamino)-pyrido[3,4-d]pyrimidine-6-yl)-furan-2-ylmethyl)-pyrrolidine-2-carboxylic acid amide hydrochloride] | 410 | 15000 |  |  |  |
| 95 | 7 | 1000 |  |  | CC(=O)NCCNCc1ccc(-c2cc3c(Nc4ccc(OCc5ccccc5)cc4)ncnc3cn2)o1 [Example 9] | 730 | 3900 |  |  |  |
| 140 | 22 |  |  |  | C[S+]([O-])CCNCc1ccc(-c2cc3c(Nc4ccc(OCc5ccccc5)cc4)ncnc3cn2)o1 (stereo not drawn) [Example 10, (4-Benzyloxy-phenyl)-(6-(5-((2-methanesulphinyl-ethylamino)-methyl)-furan-2-yl)-pyrido[3,4-d]pyrimidin-4-yl)-amine] | 250 | 8700 |  |  |  |
| 88 | 19 | 450 |  |  | O=C(O)CNCc1ccc(-c2cc3c(Nc4ccc(OCc5ccccc5)cc4)ncnc3cn2)o1 [Example 11, ((5-(4-(4-Benzyloxy-phenylamino)-pyrido[3,4-d]pyrimidine-6yl)-furan-2-ylmethyl)-amino)-acetic acid hydrochloride] | 50000 | 5900 |  |  |  |
|  | 30 | 1500 |  |  | CN(CCS(C)(=O)=O)Cc1ccc(-c2cc3c(Nc4ccc(OCc5ccccc5)cc4)ncnc3cn2)o1 [Example 15] | 300 | 8500 |  |  |  |
|  | 29 | 760 | 150 | 720 | CS(=O)(=O)NCCNCc1ccc(-c2cc3c(Nc4ccc(OCc5ccccc5)cc4)ncnc3cn2)o1 [Example 17, N-(2-((5-(4-(4-Benzyloxy-phenylamino)-pyrido[3,4-d]pyrimidin-6-yl)-furan-2-ylmethyl)-amino)-ethyl)-methanesulphonamide hydrochloride] | 250 | 3500 | 100 | 3700 |  |
